Test results from patent US10047095B2, “sGC stimulators” (IRONWOOD PHARMACEUTICALS, INC., priority 2014, dated 2018).
Blank lines part the entries; values can stand above or below the compound they belong to.

Experiments:
[1] = tested on: lambs with acute pulmonary hypertension; details: cited from earlier work; for pulmonary vasodilation / transpulmonary cGMP release / effect on mean arterial pressure / systemic arterial oxygenation: inhaled microparticles; for pulmonary vasodilation / transpulmonary cGMP release: U-46619-induced pulmonary hypertension; for effect on pulmonary vasodilation induced by iNO: BAY 41-8543 inhaled microparticles, ODQ intravenous
obese mice = details: cited from earlier work
NO-deficient rats = details: cited from earlier work
[2] = molecular target: T1, human recombinant soluble guanylate cyclase enzyme α1β1 (Homo sapiens, UniProt Q02108+Q02153); experiment: Purified human recombinant sGC α1β1 enzyme assay in the presence of DETA-NONOate (cGMP HTRF); assay type: biochemical; details: 30 uM DETA NONOate; 50% of maximal response of 30 uM Compound Y; read-out: sGC_Enz_HTRF_a1b1 EC50/IC50 Abs (Norm) (nM) Binned
T1 construct: purchased Enzo Life Sciences ALX-201-177
T1 sequence (Q02108 1-690): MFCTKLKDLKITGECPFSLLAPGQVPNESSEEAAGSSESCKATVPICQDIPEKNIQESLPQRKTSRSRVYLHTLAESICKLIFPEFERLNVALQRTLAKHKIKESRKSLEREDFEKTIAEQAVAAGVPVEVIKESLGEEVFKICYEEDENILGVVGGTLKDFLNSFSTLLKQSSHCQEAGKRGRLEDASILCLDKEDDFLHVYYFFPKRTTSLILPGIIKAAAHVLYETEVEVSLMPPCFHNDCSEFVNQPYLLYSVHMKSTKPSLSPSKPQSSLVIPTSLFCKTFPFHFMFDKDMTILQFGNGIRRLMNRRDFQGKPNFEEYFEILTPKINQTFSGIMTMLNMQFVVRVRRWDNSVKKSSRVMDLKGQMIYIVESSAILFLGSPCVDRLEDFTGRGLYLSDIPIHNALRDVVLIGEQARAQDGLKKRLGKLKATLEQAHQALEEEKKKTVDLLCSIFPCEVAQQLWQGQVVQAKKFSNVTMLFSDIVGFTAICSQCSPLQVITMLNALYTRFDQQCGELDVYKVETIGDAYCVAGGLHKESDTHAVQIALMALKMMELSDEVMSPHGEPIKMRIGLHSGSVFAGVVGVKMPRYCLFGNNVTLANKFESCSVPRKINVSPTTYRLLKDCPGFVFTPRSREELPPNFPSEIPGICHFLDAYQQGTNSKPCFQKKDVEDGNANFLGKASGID
T1 sequence (Q02153 1-619): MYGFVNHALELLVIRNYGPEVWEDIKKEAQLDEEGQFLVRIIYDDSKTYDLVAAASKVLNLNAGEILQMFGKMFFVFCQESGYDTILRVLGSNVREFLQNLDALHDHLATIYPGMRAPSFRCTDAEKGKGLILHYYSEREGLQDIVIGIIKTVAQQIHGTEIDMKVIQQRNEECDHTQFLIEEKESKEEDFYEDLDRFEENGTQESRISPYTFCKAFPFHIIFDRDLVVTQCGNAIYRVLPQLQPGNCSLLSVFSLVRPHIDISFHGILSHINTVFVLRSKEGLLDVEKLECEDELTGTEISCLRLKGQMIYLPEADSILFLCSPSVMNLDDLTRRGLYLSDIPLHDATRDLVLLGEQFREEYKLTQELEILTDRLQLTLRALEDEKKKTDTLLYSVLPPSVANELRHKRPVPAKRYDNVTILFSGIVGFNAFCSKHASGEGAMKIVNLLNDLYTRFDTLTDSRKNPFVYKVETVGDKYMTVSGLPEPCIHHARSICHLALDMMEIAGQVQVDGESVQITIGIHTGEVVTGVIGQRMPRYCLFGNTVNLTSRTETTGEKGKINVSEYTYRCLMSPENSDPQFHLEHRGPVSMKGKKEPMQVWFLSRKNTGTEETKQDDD
Experimental: Purified human recombinant soluble guanylate cyclase enzyme α1β1(h sGC) obtained from Enzo Life Sciences (P/N: ALX-201-177) was used to evaluate the activity of test compounds. The assay reactions contained 0.1 M Tris (pH 8.0), 0.5 mg/mL BSA, 2 mM DTT, 4 mM MgCl2, 30 uM DETA NONOate (Enzo Life Science P/N: ALX-430-014), and 12.5 ng/ml human soluble guanylate cyclase enzyme. […] Guanosine 5′-triphosphate (Sigma-Aldrich P/N: G8877) was added to a final concentration of 300 μM and enzyme reactions were incubated (100 μL, 384-well plate format) at 37° C. for 20 minutes. The controls contained 3% DMSO (low control), or 30 uM of Compound Y (high control). After the 20 minute incubation, the reaction was stopped with the addition of 100 μL of ice cold 20% acetic acid.
cGMP concentrations in all samples were determined using the cGMP HTRF (Cisbio P/N: 62GM2PEC) assay per manufacturer's instructions. A cGMP standard curve was fit using a 4-parameter fit (log(inhibitor) vs. response—variable slope) using GraphPad Prism Software v.6. Samples were diluted appropriately to ensure that values fell within the linear range of the standard curve.
Data were fit using a 4-parameter fit (log(agonist) vs. response—variable slope) using GraphPad Prism Software v.6.

[3] = tested on: Guinea pig tracheal smooth muscle; experiment: Electrical field stimulated guinea pig tracheal smooth muscle (ex vivo) bronchodilation model; details: inhibition of EFS-induced baseline contraction; 95% Cl, 0.78-0.94
Experimental: It is possible to assess the bronchodilating effects of sGC stimulators by using the system described below. […]
On each experimental day, a guinea pig is killed by exposure to a rising concentration of CO2 and the trachea removed. […] Tissues are washed with Kreb's buffer and stimulated using the previously determined sub-maximal voltage for 1 hour to establish a stable baseline contraction prior to assessment of compound activity.
A cumulative dose response curve (DRC) to each test substance is then performed and changes in smooth muscle contraction measured. The effect of each test substance in each experiment is expressed as a percentage inhibition of the baseline contraction, normalized to the relevant vehicle controls. […] The data from all three experiments are pooled, the DRC plotted, and the test substance potency and efficacy determined.

sickle mice = details: oral, high doses; cited from earlier work
mdx mouse = details: cited from earlier work
[4] = tested on: sickle cell disease patients; details: cited from earlier work
[5] = tested on: adult sickle cell disease patients; details: infusions; cited from earlier work
[6] = tested on: adult patients with sickle cell disease; details: acute VOE, vs placebo; cited from earlier work

Compound: Nc1nc(-c2nn(Cc3ccccc3F)c3ncccc23)ncc1C1CC1 [BAY 41-2272]
- pulmonary vasodilation [1]: dose dependent pulmonary vasodilation
- transpulmonary cGMP release [1]: increased
- effect on mean arterial pressure [1]: without significant effect

Compound: Nc1nc(-c2nn(Cc3ccccc3F)c3ncccc23)nc(N)c1N1CCOCC1 [BAY 41-8543]
- effect on pulmonary vasodilation induced by iNO [1]: augmented
- pulmonary vasodilation [1]: dose dependent pulmonary vasodilation
- transpulmonary cGMP release [1]: increased
- effect on mean arterial pressure [1]: without significant effect
- systemic arterial oxygenation [1]: increased

Compound: O=C(O)CCCCN(CCc1ccccc1OCc1ccc(CCc2ccccc2)cc1)Cc1ccc(C(=O)O)cc1 [BAY 58-2667]
- pulmonary vasodilation and transpulmonary cGMP release after treatment with ODQ ([1]; inhaled microparticles after ODQ): greatly enhanced
- pulmonary vasodilation [1]: dose dependent pulmonary vasodilation
- transpulmonary cGMP release [1]: increased
- effect on mean arterial pressure [1]: without significant effect
- systemic arterial oxygenation [1]: increased

Compound: O=C(O)CCCCN(CCc1cc(F)ccc1OCc1ccc(-c2ccc(C(F)(F)F)cc2)cc1)Cc1ccc(C(=O)O)cc1 [BAY 60-2770]
- overactive bladder (obese mice): ameliorates overactive bladder

Compound: Nc1nc(-c2nn(Cc3ccccc3F)c3ncccc23)ncc1C1CC1 [BAY-2272]
- bladder dysfunction (NO-deficient rats): protective effects

- EC50 [2]: 1000 to 5000 nM
Compound: COc1cc(-c2ncc(F)c(N3CCn4c(n[nH]c4=O)C3)n2)nn1Cc1ccccc1F [Compound I-2]

- EC50 [2]: 1000 to 5000 nM
Compound: COc1cc(-c2ncc(F)c(N3CCc4cn[nH]c4C3)n2)nn1Cc1ccccc1F [Compound I-6]

- EC50 [2]: 1000 to 5000 nM
Compound: CC(=O)c1cc(-c2ncc(F)c(N3CCn4c(n[nH]c4=O)C3)n2)nn1Cc1ccccc1F [Compound I-14]

- EC50 [2]: 1000 to 5000 nM
Compound: CC(=O)c1cc(-c2ncc(F)c(N3CCc4[nH][nH]c(=O)c4C3)n2)nn1Cc1ccccc1F [Compound I-16]

Compound: CC(C)[N+]1(C)[C@@H]2CC[C@H]1CC(OC(=O)C(CO)c1ccccc1)C2 (stereo partly drawn) [Ipratropium bromide]
- IC50 [3]: 0.86 nM

Compound: N=C(N)NCCC[C@H](N)C(=O)O [L-arginine]
- Gardos channel activity, dense cell formation and hemolysis (sickle mice): decrease

Compound: O=c1onc2cnc3ccccc3n12 [ODQ, 1H-[1,2,4]oxadiazolo[4,3-a]quinoxalin-1-one]
- effect on pulmonary vasodilation induced by iNO [1]: markedly reduced

Compound: CCCc1nn(C)c2c(=O)[nH]c(-c3cc(S(=O)(=O)N4CCN(C)CC4)ccc3OCC)nc12 [sildenafil]
- muscle ischemia, injury and fatigue after a brief bout of exercise (mdx mouse): alleviate muscle ischemia
- serious side effects (VOE, headache, visual disturbance) ([4]; Walk-PHaSST multicenter trial, stopped prematurely): higher frequency of serious side effects
- PAP and exercise capacity ([4]; sickle cell disease patients with severe PHT): improvements

Compound: O=NO [sodium nitrite]
- forearm blood flow [5]: enhanced

Compound: nitric oxide [inhaled NO]
- pain scores [6]: significantly reduced
